The source of these data is patent US20250099433A1, “COMPOSITION AND METHOD FOR TREATMENT OF GRAM NEGATIVE BACTERIAL INFECTION” (The Research Foundation for the State University of New York, priority 2021, published 2025).

Converted amounts (≈) assume the structure as drawn. “And” between values parts separate entries of the source, which are not always exact repeats. Identical values can stand only once. Like-named read-outs stand apart in the source and are kept apart here.

In assay [1] the target is T1, paLpxC (Pseudomonas aeruginosa (strain ATCC 15692 / DSM 22644 / CIP 104116 / JCM 14847 / LMG 12228 / 1C / PRS 101 / PAO1), UniProt P47205). Put plainly: biochemical. It is filed as binding. The conditions noted are these: for tR (min) Fluorescence assay: tR = 1/koff; for kon: read-out: Kon (μM^−1s^−1); for residence time fold longer than 1: fluorescence assay.
T1 sequence (P47205 1-299): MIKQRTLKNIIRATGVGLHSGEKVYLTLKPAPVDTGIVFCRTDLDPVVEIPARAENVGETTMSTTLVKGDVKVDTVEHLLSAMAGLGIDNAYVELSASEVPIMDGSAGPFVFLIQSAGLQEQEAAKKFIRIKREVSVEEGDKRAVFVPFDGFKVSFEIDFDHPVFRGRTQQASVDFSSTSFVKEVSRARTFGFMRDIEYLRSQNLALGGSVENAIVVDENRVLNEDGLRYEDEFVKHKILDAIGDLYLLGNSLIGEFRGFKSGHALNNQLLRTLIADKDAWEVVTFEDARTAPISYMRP
The subject of assay [2] is efflux-pump mutant strain (ΔMexABCDXY) (paEP). Put plainly: MIC by microbroth dilution, efflux-pump mutant P. aeruginosa. Particulars: for MIC: Pseudomonas aeruginosa, read-out: MIC (μM) (paEP).
Text: Bacterial Strains. […] The efflux-pump deficient P. aeruginosa strain (ΔMexABCDXY), N150, was derived from PAO1.
Minimum Inhibitory Concentration (MIC) Measurements.
For assay [3], the system named is P. aeruginosa PAO1. Put plainly: MIC by microbroth dilution, P. aeruginosa PAO1. Particulars: for MIC: Pseudomonas aeruginosa, PAO1, read-out: MIC (μM) (PAO1).
For assay [4], the system named is P. aeruginosa PAO1. The experiment in a line: Post-antibiotic effect (PAE) in P. aeruginosa PAO1. The conditions noted are these: PAO1, 4xMIC for 1 h, 37° C.
Experimental: Post-antibiotic effect of the paLpxC inhibitors on wild-type P. aeruginosa. […] The experimental data points are the mean values from triplicate, independent measurements, and the error bars represent the standard deviation from the mean.
After incubating the plates overnight at 37° C., CFUs were enumerated, and the PAE values were calculated using a standard method where the time for the bacteria to recover 1 log post drug washout compared to the control was determined (FIG. 17, Table 6).
Post-antibiotic Effect (PAE). PAEs were determined using P. aeruginosa PAO1. […] The compound was washed out by diluting the culture 1000-fold into fresh CAMH-II medium, and the regrowth of bacteria was monitored by taking 100 μL aliquots each hour and plating serial dilutions on Muller-Hinton agar plates.
Assay [5] addresses T1, paLpxC. Put plainly: Spin column (Penefsky) residence time assay on paLpxC. The class given is binding. Particulars: 37° C. Here is the method: FIG. 14. Spin-column assay. A spin-column assay was used to quantify the residence time of inhibitors on paLpxC at 37° C. […] Samples were then subjected to size exclusion chromatography at different times using a Spin-Trap G-25 column (800×g for 2 min). […] Preincubated solutions of enzyme (10 μM) and inhibitor (10 or 20 μM) were diluted 200-fold into a solution of PT855 (1 μM) at 37° C. Aliquots of this solution were withdrawn at various times and subjected to centrifugal gel filtration chromatography using PD SpinTrap™ G-25 columns. The fluorescence of the eluate was quantified, and the data were fit to a single exponential equation to obtain koff (FIG. 14, Tables 4 and 5).
Inhibitor Residence Time Measurements using a Spin Column Assay. […] Subsequently, 10 μL of the incubation mixture was diluted into 2 mL of the same buffer containing 1 μM of PT855, and 100 μL of this mixture was then aliquoted at different time points and loaded onto a PD SpinTrap™ G-25 column (Cytiva) that had been equilibrated with buffer prior to sample loading. […] The fluorescence intensities corresponding to loading diluted EI without the fluorescent competitor and loading the competitor alone were measured separately to determine the dynamic range and endpoint of the assay. […] Rates were calculated by fitting the change in fluorescence intensity over time to a one-phase association equation in GraphPad Prism.

Where [6] appears, read: 37° C., fluorescence competition.

With `CC(CCn1ccc(-c2ccc(-c3cn(CC4CCCCC4)nn3)cc2)cc1=O)(C(=O)NO)S(C)(=O)=O` (racemic) [PT910, 4-(4-(4-(1-(cyclohexylmethyl)-1H-1,2,3-triazol-4-yl)phenyl)-2-oxopyridin-1(2H)-yl)-N-hydroxy-2-methyl-2-(methylsulfonyl)butanamide], the Ki on paLpxC [1] (setting [6]) stood at 5.5 ± 3.4 pM. For the same compound, on paLpxC [1] (37° C.), the “tR (min) Fluorescence assay” value is listed as 100.2 ± 18.5 min. The dissociation rate constant (koff) at paLpxC [1] (read-out: Koff (s^−1)) is 0.00017 ± 3e-05 s⁻¹. Moreover, the kon at paLpxC [1] was 31 ± 3 µM⁻¹ s⁻¹. Also, the MIC stood at 3.12 µM (≈ 1.65 µg/mL) in assay [2] and 50 µM (≈ 26.4 µg/mL) in the assay on P. aeruginosa PAO1 [3].
Take `CC(CCn1ccc(-c2ccc(-c3cnnn3Cc3ccccc3)cc2)cc1=O)(C(N)=O)S(C)(=O)=O` (stereo not drawn) [PT925, 4-(4-(4-(1-benzyl-1H-1,2,3-triazol-5-yl)phenyl)-2-oxopyridin-1(2H)-yl)-2-methyl-2-(methylsulfonyl)butanamide]: the “tR (min) Fluorescence assay” value on paLpxC [1] (37° C.) is 9 min and 9.0 ± 0.9 min. The MIC in assay [2] was 12.5 µM (≈ 6.32 µg/mL); with P. aeruginosa PAO1 [3], 50 µM (≈ 25.3 µg/mL).
In turn, `COc1ccc(-c2ccc(CNC3(C(=O)NO)CCS(=O)(=O)CC3)cc2F)cc1` [PT921, 4-(((2-fluoro-4′-methoxy-[1,1′-biphenyl]-4-yl)methyl)amino)-N-hydroxytetrahydro-2H-thiopyran-4-carboxamide 1,1-dioxide] displayed a Ki at paLpxC [1] (setting [6]) of 14.4 ± 2.5 pM. Further, the “tR (min) Fluorescence assay” value on paLpxC [1] (37° C.) turned out to be 34.3 ± 1.0 min. The koff on paLpxC [1] (read-out: Koff (s^−1)) was 0.00049 ± 1e-05 s⁻¹. For the same compound, at paLpxC [1], the kon came out at 34.5 ± 6.3 µM⁻¹ s⁻¹. In addition, the MIC in assay [2] stood at 0.1 µM (≈ 0.0422 µg/mL); in the assay on P. aeruginosa PAO1 [3] it was 0.8 µM (≈ 0.338 µg/mL).
For `CC(CCn1ccc(-c2ccc(-c3cn(CC45CC(C4)C5)nn3)cc2)cc1=O)(C(=O)NO)S(C)(=O)=O` (racemic) [PT913, 4-(4-(4-(1-(bicyclo[1.1.1]pentan-1-ylmethyl)-1H-1,2,3-triazol-4-yl)phenyl)-2-oxopyridin-1(2H)-yl)-N-hydroxy-2-methyl-2-(methylsulfonyl)butanamide], the “PAE (h) 4x” value in the assay on P. aeruginosa PAO1 [4] is 4 h and 4.0 ± 0.2 h. The affinity on paLpxC [1] (setting [6]) corresponds to a Ki of 2.1 ± 1.6 pM. In addition, at paLpxC [1] (37° C.), the “tR (min) Fluorescence assay” value was 123.8 ± 37.2 min and 124.0 ± 37.2 min; the “residence time fold longer than 1” value is around 3 fold. Moreover, the koff on paLpxC [1] (read-out: Koff (s^−1)) amounted to 0.00015 ± 5e-05 s⁻¹. Moreover, the association rate constant (kon) on paLpxC [1] turned out to be 85.2 ± 32.5 µM⁻¹ s⁻¹. In assay [2], the MIC stood at 0.78 µM (≈ 0.399 µg/mL). In addition, the MIC with P. aeruginosa PAO1 [3] is 12.5 µM (≈ 6.4 µg/mL).
In turn, `CC(CCn1ccc(-c2ccc(-c3cn(CCO)nn3)cc2)cc1=O)(C(=O)NO)S(C)(=O)=O` (racemic) [PT912, N-hydroxy-4-(4-(4-(1-(2-hydroxyethyl)-1H-1,2,3-triazol-4-yl)phenyl)-2-oxopyridin-1(2H)-yl)-2-methyl-2-(methylsulfonyl)butanamide] yielded a Ki at paLpxC [1] (setting [6]) of 3.7 ± 2.3 pM. Further, the “tR (min) Fluorescence assay” value at paLpxC [1] (37° C.) is recorded as 92.3 ± 11.2 min. The koff at paLpxC [1] (read-out: Koff (s^−1)) is 0.00018 ± 2e-05 s⁻¹. For the same compound, at paLpxC [1], the kon was determined as 59.6 ± 22.9 µM⁻¹ s⁻¹. Further, the MIC in assay [2] was above 12.5 µM; in the assay on P. aeruginosa PAO1 [3], above 50 µM.
Compound `CC(CCn1ccc(-c2ccc(C(=O)NCc3ccccc3)cc2)cc1=O)(C(=O)NO)S(C)(=O)=O` (racemic) [PT923, N-benzyl-4-(1-(4-(hydroxyamino)-3-methyl-3-(methylsulfonyl)-4-oxobutyl)-2-oxo-1,2-dihydropyridin-4-yl)benzamide] displayed a Ki at paLpxC [1] (setting [6]) of 274 ± 76.6 pM. Moreover, on paLpxC [1] (37° C.), the “tR (min) Fluorescence assay” value was 8.0 ± 1.2 min. The koff at paLpxC [1] (read-out: Koff (s^−1)) turned out to be 0.0021 ± 0.0003 s⁻¹. For the same compound, on paLpxC [1], the association rate constant (kon) was 23.8 ± 18.8 µM⁻¹ s⁻¹. The MIC in assay [2] is 3.12 µM (≈ 1.55 µg/mL); in the assay on P. aeruginosa PAO1 [3] it was 25 µM (≈ 12.4 µg/mL).
`C=CCn1cc(-c2ccc(-c3ccn(CCC(C)(C(=O)NO)S(C)(=O)=O)c(=O)c3)cc2)nn1` (racemic) [PT907, 4-(4-(4-(1-allyl-1H-1,2,3-triazol-4-yl)phenyl)-2-oxopyridin-1(2H)-yl)-N-hydroxy-2-methyl-2-(methylsulfonyl)butanamide] displayed a Ki on paLpxC [1] (setting [6]) of 6.1 ± 5.7 pM. Further, on paLpxC [1] (37° C.), the “tR (min) Fluorescence assay” value was found to be 82.8 ± 26.0 min. For the same compound, the koff on paLpxC [1] (read-out: Koff (s^−1)) came to 0.00022 ± 7e-05 s⁻¹. Further, on paLpxC [1], the on-rate (kon) stood at 52 ± 29.5 µM⁻¹ s⁻¹. Besides, the MIC in assay [2] was 0.78 µM (≈ 0.368 µg/mL); in the assay with P. aeruginosa PAO1 [3] it was 12.5 µM (≈ 5.89 µg/mL). Moreover, at paLpxC [5] (direct displacement), the “tR (min) (Spin column assay)” value worked out at 146.5 ± 44.0 min. Besides, the “k (min^−1), spin-column assay” value at paLpxC [5] (first-order fit) was determined as 0.007 ± 0.002 min⁻¹.
Regarding `CC(CCn1ccc(-c2ccc(N)cc2)cc1=O)(C(=O)NO)S(C)(=O)=O` (stereo not drawn) [PT919], on paLpxC [1] (setting [6]), the affinity corresponds to a Ki of 4 ± 3 pM, the “Kon” value worked out at 6.427e+07 ± 5.976e+07 M⁻¹ s⁻¹ and the “koff” value was found to be 0.000143 ± 0.00003 s⁻¹. The “tR (min) Fluorescence assay” value on paLpxC [1] (37° C.) was found to be 121.15 ± 30 min. Moreover, in assay [2] (efflux-pump mutant ΔMexABCDXY), the “MIC (μM) (paEP)” value worked out at 0.78 µM (≈ 0.296 µg/mL). Besides, the “MIC (μM) (PAO1)” value against P. aeruginosa PAO1 [3] (wild-type P. aeruginosa PAO1) was determined as 12.5 µM (≈ 4.74 µg/mL).
In the case of `CC(CCn1ccc(-c2ccc(-c3cn(Cc4ccccn4)nn3)cc2)cc1=O)(C(=O)NO)S(C)(=O)=O` (racemic) [PT914, N-hydroxy-2-methyl-2-(methylsulfonyl)-4-(2-oxo-4-(4-(1-(pyridin-2-ylmethyl)-1H-1,2,3-triazol-4-yl)phenyl)pyridin-1(2H)-yl)butanamide], the Ki on paLpxC [1] (setting [6]) is 5.5 ± 3.4 pM. Further, at paLpxC [1] (37° C.), the “tR (min) Fluorescence assay” value was determined as 118.5 ± 44.0 min and the “residence time fold longer than 1” value is around 3 fold. Besides, the koff on paLpxC [1] (read-out: Koff (s^−1)) amounted to 0.00016 ± 6e-05 s⁻¹. For the same compound, the kon at paLpxC [1] amounted to 37.2 ± 23 µM⁻¹ s⁻¹. Moreover, in assay [2], the MIC amounted to 0.2 µM (≈ 0.105 µg/mL). In the assay on P. aeruginosa PAO1 [3], the “MIC fold lower than that for PT810” value worked out at 2 fold and the MIC was found to be 6.25 µM (≈ 3.27 µg/mL).
In turn, `CC(CCn1ccc(-c2ccc(-c3cn(Cc4ccc([N+](=O)[O-])cc4)nn3)cc2)cc1=O)(C(=O)NO)S(C)(=O)=O` (racemic) [PT918, N-hydroxy-2-methyl-2-(methylsulfonyl)-4-(4-(4-(1-(4-nitrobenzyl)-1H-1,2,3-triazol-4-yl)phenyl)-2-oxopyridin-1(2H)-yl)butanamide] came in with a Ki on paLpxC [1] (setting [6]) of 7 ± 1 pM. Besides, on paLpxC [1] (37° C.), the “tR (min) Fluorescence assay” value was 78.5 ± 8.4 min. Besides, at paLpxC [1] (read-out: Koff (s^−1)), the koff stood at 0.00021 ± 2e-05 s⁻¹. Also, the kon at paLpxC [1] stood at 30.7 ± 0.1 µM⁻¹ s⁻¹. The MIC was 0.1 µM (≈ 0.0567 µg/mL) in assay [2] and 6.25 µM (≈ 3.54 µg/mL) in the assay on P. aeruginosa PAO1 [3].
